Biological target: Acetylcholinesterase (Homo sapiens, UniProt P22303)
Assay: Inhibition of AChE (unknown origin) using acetylthiocholine iodide as substrate preincubated for 30 mins followed by substrate addition and measured after 3 mins by DTNB reagent based Ellman's method

Acetylcholinesterase, sequence (P22303 whole entry): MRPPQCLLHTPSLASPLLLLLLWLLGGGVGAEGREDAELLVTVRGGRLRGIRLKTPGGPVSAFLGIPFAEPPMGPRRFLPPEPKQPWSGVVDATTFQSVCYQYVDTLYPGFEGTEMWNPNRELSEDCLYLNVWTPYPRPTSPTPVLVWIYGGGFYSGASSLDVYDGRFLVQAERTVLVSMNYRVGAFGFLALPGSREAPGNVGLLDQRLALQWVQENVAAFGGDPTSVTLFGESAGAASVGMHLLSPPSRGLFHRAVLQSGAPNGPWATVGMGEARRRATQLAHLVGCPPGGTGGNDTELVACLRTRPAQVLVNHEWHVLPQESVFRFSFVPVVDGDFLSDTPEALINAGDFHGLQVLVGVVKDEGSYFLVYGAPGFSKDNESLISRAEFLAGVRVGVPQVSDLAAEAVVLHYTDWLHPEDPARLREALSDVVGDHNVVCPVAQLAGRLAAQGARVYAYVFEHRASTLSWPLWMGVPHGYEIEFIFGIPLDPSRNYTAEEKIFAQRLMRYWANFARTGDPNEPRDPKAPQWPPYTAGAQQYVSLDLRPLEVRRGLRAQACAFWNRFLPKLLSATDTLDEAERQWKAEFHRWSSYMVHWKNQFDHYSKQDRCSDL

Structure (SMILES)	IC50 [µM]
C=CCN1CC[C@@]23C=C[C@H](O)C[C@@H]2Oc2c(OC)ccc(c23)C1 [N-ALLYLNORGALANTHAMINE]	0.18
COc1ccc2c3c1O[C@H]1C[C@@H](O)C=C[C@@]31CCN(C(C)=O)C2	9.8
COc1ccc2c3c1O[C@H]1C[C@@H](O)C=C[C@@]31CCN(C=O)C2	98.8

From ChEMBL document CHEMBL6092139, “AChE inhibitory activity of N-substituted natural galanthamine derivatives” (Bioorg Med Chem Lett, 2024)
